Measured values taken from US10828436B2, “Administering the noble gas argon during cardiopulmonary resuscitation” (Vanderbilt University, priority 2016, dated 2020).

How the values were obtained:
rat isolated hearts = test: Rat isolated hearts, 30 min global no-flow ischemia and 120 min reperfusion; settings: for defibrillation by lidocaine administration required to convert back to sinus rhythm: vs control hearts, P<0.05
Text: (§1) In one example, in-vivo experiments included a systematic study of the effect of Argon administered during CPR in a pig model of cardiac arrest on cardiac and neurological function, histological and other molecular effects after ROSC including 24- or 48 hr survival studies. […] Other examples include cell culture (in vitro) and isolated heart (ex vivo) experiments. The in vitro experiments include a systematic study of the effect of Argon administered on reoxygenation after prolonged hypoxia on markers of cellular injury and cell death in cardiomycytes and neuronal cell cultures. The ex vivo experiments include a systematic study of the effect of Argon administered on reperfusion after global coronary ischemia on coronary and myocardial function and infarct size in rat isolated hearts.

[1] = test system: coronary artery endothelial cells; test: Hypoxia/reoxygenation in isolated cells, LDH injury marker; type: cell-based, human; settings: Argon for 10 min or 30 min upon reoxygenation after hypoxia, vs control HR with nitrogen
Description: (§2) These experiments show no evidence that Argon, given for 10 min or 30 min upon reoxygenation (R) after hypoxia (H), directly improves the cellular injury marker lactate dehydrogenase (LDH) compared to control HR with nitrogen.

rat isolated lungs = test: Rat isolated lungs, pulmonary vascular resistance under different gas mixtures
Description: Rat isolated lungs ventilated with either 65% N2 or 65% Argon plus 30% O2 and 5% CO2 and perfused at a rate of 40 mL/kg body weight with physiological salt solution plus 4% albumin via cannulas placed into the pulmonary artery (PA) and left atrium. PA pressure is recorded throughout the experiment and analyzed to determine the effect of different gas mixtures on the pulmonary vascular resistance. Argon led to a reversible 28% drop in pulmonary perfusion pressure at constant flow compared to ventilation with Nitrogen before and after. P<0.05*vs Nitrogen, † vs Argon.

human cardiomyocytes = test: Hypoxia/reoxygenation in isolated cells, LDH injury marker; type: cell-based; settings: Argon for 10 min or 30 min upon reoxygenation after hypoxia, vs control HR with nitrogen
Description: as §2, §1

[2] = test system: pig model of cardiac arrest; test: Pig model of cardiac arrest and CPR with Argon/O2 given during CPR before ROSC; type: in vivo
Description: Argon treatment led to higher systemic pulse pressures (arterial pressure during compression minus pressure during decompression), a lower number of defibrillation attempts and epinephrine requirements to achieve ROSC, a higher ROSC rate, lower lactic acidosis upon ROSC and lower cardiac injury markers (CK-MB and Troponin I) 6 hours after ROSC.
as §1, with “hearts. […]” for “hearts.”

[3] = 65% Argon for 10 or 120 min of reperfusion vs 65% Nitrogen
[4] = gas mixture given during CPR, pigs

[Ar] [Argon, argon]
coronary or myocardial function (diastolic and developed left ventricular pressure, coronary flow) (rat isolated hearts; [3]): no evidence of improved
infarct size (rat isolated hearts; [3]): no evidence of improved
defibrillation by lidocaine administration required to convert back to sinus rhythm (rat isolated hearts): significantly less
defibrillation by lidocaine administration required to convert back to sinus rhythm (rat isolated hearts; listed as 70% Argon): less
improvement of cellular injury marker lactate dehydrogenase (LDH) [1]: no evidence
drop in pulmonary perfusion pressure at constant flow (rat isolated lungs; 65% Argon plus 30% O2 and 5% CO2, reversible, vs ventilation with Nitrogen before and after): 28%
pulmonary artery pressure at constant flow (rat isolated lungs; isolated lungs, in words): lower
improvement of cellular injury marker lactate dehydrogenase (LDH) (human cardiomyocytes): no evidence
outcome parameters ([2]; CPR with 70% Argon, compared to control animals without Argon during CPR, in words): much improved
systemic pulse pressures (arterial pressure during compression minus pressure during decompression) ([2]; during CPR, vs Nitrogen/O2, in words): higher
Arterial pH upon ROSC [2, 4]: 7.27 ± 0.05
CK-MB 6 hrs after ROSC [2, 4]: 15.2 ± 4.3 ng/mL
Epinephrine dose to achieve ROSC [2, 4]: 0.7 ± 0.2 mg
Lactate upon ROSC [2, 4]: 6.8 ± 0.7 mEq
Number of defibrillations to achieve ROSC [2, 4]: 2.4 ± 1.0 n
Pulse pressure at 3 min CPR [2, 4]: 62.3 ± 3.7 mmHg
ROSC [2, 4]: 100%
Troponin I 6 hrs after ROSC [2, 4]: 6.8 ± 4.7 ng/mL
ROSC rate ([2]; vs Nitrogen/O2, in words): higher
cardiac injury markers (CK-MB and Troponin I) 6 hours after ROSC ([2]; vs Nitrogen/O2, in words): lower
epinephrine requirements to achieve ROSC ([2]; vs Nitrogen/O2, in words): lower
lactic acidosis upon ROSC ([2]; vs Nitrogen/O2, in words): lower
number of defibrillation attempts to achieve ROSC ([2]; vs Nitrogen/O2, in words): lower
number of defibrillation attempts to achieve ROSC ([2]; vs Nitrogen/O2, in words, listed as 70% Argon): less
